Source: patent US20110008409A1, “PHARMACEUTICAL PREPARATION CONTAINING A GESTAGEN, AND KIT AND METHOD FOR TREATING ENDOMETRIOSIS USING THE PREPARATION” (priority 2007, published 2011)

Key:
[1] = tested on: women with laparoscopically diagnosed endometriosis; test: Clinical study in endometriosis: pain scale (visual analog scale, VAS); assay type: in vivo; conditions: end of 6-month treatment; for pain reduction on visual analog scale (VAS) compared to the pain experienced at the beginning of therapy: DNG 2 mg/d orally, LA 3.75 mg s.c. every 4 weeks
Procedure: (§1) The efficacy of each therapy was evaluated by means of, among other methods, a pain scale (visual analog scale, VAS) form filled out by the patient.

[2] = tested on: women with laparoscopically diagnosed endometriosis; conditions: in vivo
Procedure: as §1

[3] = tested on: women with laparoscopically diagnosed endometriosis; conditions: in vivo; remark: listed apart in the source
Procedure: as §1
The effect of the two therapies on bone metabolism was studied in a subgroup of patients.

[4] = tested on: women with laparoscopically diagnosed endometriosis; conditions: in vivo; remark: listed apart in the source
[5] = tested on: subjects affected with endometriosis; conditions: 2 mg of dienogest per day for 24 weeks; cited from earlier work
ovulation = conditions: daily dose; as set for the purposes of the invention; cited from earlier work

CCNC(=O)[C@@H]1CCCN1C(=O)[C@H](CCCNC(=N)N)NC(=O)[C@H](CC(C)C)NC(=O)[C@@H](CC(C)C)NC(=O)[C@H](Cc1ccc(O)cc1)NC(=O)[C@H](CO)NC(=O)[C@H](Cc1c[nH]c2ccccc12)NC(=O)[C@H](Cc1c[nH]cn1)NC(=O)[C@@H]1CCC(=O)N1 [LA, leuprorelin acetate]
pain reduction on visual analog scale (VAS) compared to the pain experienced at the beginning of therapy [1]: −46.0 mm | course of hot flash symptomatology during therapy [2]: increased | change of bone density compared to the beginning of the study [3]: −4.0% | laboratory parameters for determining bone metabolism [3]: increased bone resorption | estrogen values, average value at the end of study [4]: 68.5 pmol/L

C[C@]12CCC3=C4CCC(=O)C=C4CC[C@H]3[C@@H]1CC[C@@]2(O)CC#N [DNG, 17α-cyanomethyl-17-β-hydroxyestra-4,9-dien-3-one]
statistical analysis of pain reduction versus comparator ([1]; DNG 2 mg/d orally vs LA 3.75 mg s.c. every 4 weeks): not inferior to LA | pain reduction on visual analog scale (VAS) compared to the pain experienced at the beginning of therapy [1]: −47.5 mm | course of hot flash symptomatology during therapy [2]: reduced | change of bone density compared to the beginning of the study [3]: +0.25% | estrogen values, average value at the end of study [4]: 249.9 pmol/L | result of the treatment compared with Danazol or GnRH agonists [5]: comparable

CC(=O)O[C@]1(C(C)=O)CC[C@H]2[C@@H]3C=C(Cl)C4=CC(=O)CC[C@]4(C)[C@H]3CC[C@@]21C [chiormadinone acetate, chlormadinone acetate]
ovulation-inhibiting dose (ovulation): 1.7 mg

CC(=O)O[C@]1(C(C)=O)CC[C@H]2[C@@H]3C=C(Cl)C4=CC(=O)[C@@H]5C[C@@H]5[C@]4(C)[C@H]3CC[C@@]21C [cyproterone acetate]
ovulation-inhibiting dose (ovulation): 1 mg
